The values below come from article PMC7722660 (Neuropsychopharmacology Reports, 2020).

Where “and” joins values, the source holds several entries; their conditions need not be identical. Identical values can stand only once.

Series [1] in a line: Brain penetration: plasma and brain concentrations in rats. To be noted: rat, in vivo, po.
The nature of series [2]: Spontaneous locomotor activity in rats. To be noted: up to 100 mg/kg, data not shown. It counts as in vivo, rat.
For series [3], the system named is rats. Kind of series: Rat EEG. It counts as in vivo. To be noted: 100 mg/kg p.o., vs vehicle.
Series [4] concerns 55 molecular targets, including neurotransmitter receptors, ion channels, and transporters. Briefly: Cerep ExpresSProfile off-target panel. The conditions noted are these: 10 μmol/L. In kind it is binding.
Series [5] in a line: Pharmacokinetic study in rats. In kind it is in vivo. To be noted: rat, plasma.
The subject of series [6] is OX2 receptor. The conditions noted are these: cited from earlier work.
In series [7] the test system is rats. The conditions noted are these: cited from earlier work.
Series [8] concerns OX2 receptor. The conditions noted are these: agonist ref 21; cited from earlier work.

Regarding `COc1c(C#N)ccnc1N1C2CCC1CN(C(=O)c1cccnc1-n1cccn1)C2` [SDM‐878, 2‐(3‐(2‐(1H‐pyrazol‐1‐yl)nicotinoyl)‐3,8‐diazabicyclo[3.2.1]octan‐8‐yl)‐3‐methoxyisonicotinonitrile], in series [1] (30 mg/kg), the concentration at 30 min is 110 ng/mL and 28 ng/g. Besides, the concentration at 30 min in series [1] (100 mg/kg) is 601 ng/mL and 198 ng/g. Moreover, in series [2], the “effect on spontaneous locomotor activity” value is given as “did not affect”. Also, the “effect on duration of REM sleep” value in series [3] was “did not observe a significant effect”. Moreover, in series [3] (P < .05), the “effect on duration of NREM sleep” value was “significantly increased”, the “effect on time spent in wakefulness” value was “significantly decreased” and the “effect on total sleep” value is listed as “significantly increased”. The “inhibitory effects on 55 other molecular targets” value in series [4] is on record as at most 50%. The half-life in series [5] (iv, 1 mg/kg) is 22.2 min. Moreover, in series [5] (po, 30 mg/kg), the Cmax came to 1180 ng/mL, the time to peak (Tmax) amounted to 15 min and the half-life was 25.8 min.
Consider orexin‐B, for which, in series [6], the “fold higher affinity for the OX2 receptor than for the OX1 receptor” value is on record as 10 fold.
For `Cc1cc(C)nc(N2CC3CN(C(=O)c4c(F)cccc4-n4nccn4)CC3C2)n1` (stereo not shown) [JNJ‐42847922], in series [7] (rats ref 19, 23), the “effect on REM sleep” value is listed as “did not exert a significant effect”. In addition, the “effect on NREM sleep time” value in series [7] (rats, first 2 hours of sleep ref 19, 23) is listed as “prolonged”.
Turning to [Ala^11, D‐Leu^15]‐orexin‐B [ADL‐OXB], the “selectivity for the OX2 receptor over the OX1 receptor” value in series [8] is listed as 400 fold.
